Here are results for one molecule from patent publication US20070082327A1, “Cellular phenotype” (Cytokinetics, Inc. A Delaware Corporation, priority 2005, published 2007).

For one test, the system named is SKOV3 cells. Description: time-lapse tracking of cell fate, GFP-Histone 2B SKOV3 cells. It counts as cell-based. The settings on record: SKOV3, 20 random cells tracked, 0.5 μM Taxol, FIG. 3a. As for the experimental part: FIG. 3a is a bar graph showing the percentages of 20 random cells tracked to assess their fate: complete mitosis, death from mitosis, decondensation (uncertain fate) and death from decondensation.
The data used to construct the chart was obtained by time-lapse movies of cells marked with GFP-Histone 2B. Movies were collected on cell populations treated with two different mp2 stimulus compounds at various concentrations, as well as on DMSO-treated (control) cells, cells treated with 0.5 μM Taxol, and cells treated with compounds that produce a rice phenotype. […] It is believed that most of these cells would eventually die.

A further test has as its system 60 cancer cell lines. The settings on record: NCI 60 cell line data; cited from earlier work.

With `CC(=O)O[C@H]1C(=O)[C@@]2(C)[C@H]([C@H](OC(=O)c3ccccc3)[C@]3(O)C[C@H](OC(=O)[C@H](O)[C@@H](NC(=O)c4ccccc4)c4ccccc4)C(C)=C1C3(C)C)[C@]1(OC(C)=O)CO[C@@H]1C[C@@H]2O` [Taxol, paclitaxel], in the test on SKOV3 cells, the “cell fate after treatment” value is on record as “the highest number of cells die directly from mitosis”. The “potency differences between cell types” value with 60 cancer cell lines is reported as “over 3 orders of magnitude”.
